Data published in patent US5605929A, “Methods and compositions for inhibiting 5α-reductase activity” (priority 1995, dated 1997).
Read-outs that look alike come from different tables or passages of the source.

Columns and labels:
[1] = molecular target: T1, α-Amylase of human saliva (Homo sapiens, UniProt P0DUB6); conditions: cited from earlier work
T1 construct: α-Amylase of human saliva; host or cells: human saliva

[2] = system: human breast tumor cell line, MDF-7; assay: Human breast tumor growth in nude mice; assay type: in vivo; conditions: 1 mg/mouse/day, 2 weeks
Method: For breast tumor studies, human breast tumor cell line, MDF-7 (1 million cells) was injected into female nude mice. After 5 weeks, the tumor was over 1000 mm^3.

[3] = molecular target: rat small intestinal maltase; conditions: cited from earlier work
[4] = molecular target: T2, HIV-1 reverse transcriptase (Human immunodeficiency virus type 1 group M subtype B, UniProt P04585); conditions: cited from earlier work
T2 construct: HIV-1 reverse transcriptase

[5] = system: androgen-dependent organs; assay type: in vivo, rat
Method: The control rats were injected with 0.3 ml of 30% ethanol.

[6] = system: Human prostate cancer PC-3 cells; assay: PC-3 tumor growth in nude mice; assay type: in vivo, nude mice (human tumor)
Method: Human prostate cancer PC-3 cells were grown in culture medium. About one million cells were injected into male nude mice and the growth of tumors were followed. Within two weeks, the tumor grew to about 100 mm^3. […] The 3 controls received water only.

[7] = system: prostate and preputial glands; assay: EGCG ip 7 days, normal and castrated rats with androgen; assay type: in vivo, rat; conditions: for prostate weight reduction: 5 mg/day
Method: Male Sprague-Dawley rats, 60±5 g body weight, were used. Rats were divided into 6 groups. Each group had 5 rats. Groups 1 and 2 were normal rats while the other 4 groups had rats castrated on the first day. […] The control rats (Group 1) received 0.1 ml of 30% ethanol.

PC-3 = assay: 5α-DHT formation from [3H]testosterone by PC-3 cells; assay type: cell-based, human; conditions: Homo sapiens, PC-3, read-out: 5α-DHT formed (% of control)
LNCaP = assay: cells; conditions: Homo sapiens, read-out: 5α-DHT formed (% of control)
[8] = system: forehead sebum production; assay: Forehead sebum production (L/R ratio), human male; assay type: in vivo
Method: A volunteer was used to test and analyze sebum production from the forehead region. The forehead was washed thoroughly by soap twice and cleaned by 70% isopropyl alcohol twice. Sebum production was measured 30 to 60 minutes later by a sebum meter (Courage/Khazaka Electronic GmbH, Germany). The sebum meter tape probe (7 mm×8 mm) covered 56 mm^2 area in each measurement. Ten measurements were made within the 4 cm square area (16 cm^2) located at the middle of the left or right side forehead between the eyebrow and the hair line.
The sebum meter detected the difference in the transparency of the tape before and after the tape was placed on the forehead for 30 seconds and expressed the difference in an arbitrary number (S-value) between 0 to 300 (or higher). S-values of sebum accumulated on the foreheads of men are usually 200 to 300.

[9] = system: flank organs, seminal vesicles, prostate and other organs
[10] = ethanol solution
hamster flank organ = assay: Flank organ, castrated immature male hamsters, topical treatment; assay type: in vivo, Syrian golden hamster; conditions: for change of pigmented macule vs T alone: Table 4, T + 1 mg fatty acid
In short: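 Castrated immature male hamsters (5 per group) received 5 μl once daily on the right flank organ of ethanol vehicle, androgen (T or 5α-DHT), fatty acid, or androgen plus fatty acid. The left organ was left untreated. Pigmented macule and sebaceous gland growth were assessed with caliper long and short axes, as mean ± SD.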

NADH:menadione reductase = conditions: 10 to 40 μM
[11] = system: 17β-steroid dehydrogenase; assay: 4-Androstenedione formation from [3H]testosterone by PC-3 cells (17β-steroid dehydrogenase); assay type: cell-based, human

T1 sequence (P0DUB6 16-511): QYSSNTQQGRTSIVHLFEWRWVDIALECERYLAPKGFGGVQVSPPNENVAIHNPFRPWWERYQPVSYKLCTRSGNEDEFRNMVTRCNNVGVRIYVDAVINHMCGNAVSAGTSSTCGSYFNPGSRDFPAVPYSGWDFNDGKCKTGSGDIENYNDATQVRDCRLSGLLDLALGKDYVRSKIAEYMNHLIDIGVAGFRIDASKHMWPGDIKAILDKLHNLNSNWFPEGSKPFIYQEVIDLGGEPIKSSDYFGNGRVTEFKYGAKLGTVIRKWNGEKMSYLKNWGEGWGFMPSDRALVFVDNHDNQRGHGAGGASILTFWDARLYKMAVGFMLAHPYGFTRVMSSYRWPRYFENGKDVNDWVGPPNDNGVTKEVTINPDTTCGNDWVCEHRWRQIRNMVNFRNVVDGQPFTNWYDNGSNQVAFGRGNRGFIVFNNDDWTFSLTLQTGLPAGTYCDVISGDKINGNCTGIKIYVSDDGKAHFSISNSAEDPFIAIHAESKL

O=C(O[C@@H]1Cc2c(O)cc(O)cc2O[C@@H]1c1cc(O)c(O)c(O)c1)c1cc(O)c(O)c(O)c1 [EGCG, (-)Epigallocatechin-3-gallate]
IC50 [1]: 50 to 500 µM | tumor reduction [2]: 50% | IC50 [3]: 50 to 500 µM | IC50 [4]: 0.04 µM | body weight reduction ([5]; 10 mg per day): about 10% | coagulating glands weight reduction ([5]; 10 mg per day): about 30% | dorsolateral prostate weight reduction ([5]; 10 mg per day): about 30% | effect on weights of testis and kidney ([5]; 10 mg per day): not significant | preputial glands weight loss ([5]; 10 mg per day): 20 to 25% | seminal vesicles weight loss ([5]; 10 mg per day): 20 to 25% | ventral prostate weight reduction ([5]; 10 mg per day): about 30% | body weight loss ([5]; 10 mg per day, discussion): less than 10% | prostate weight loss ([5]; 10 mg per day, discussion): more than 30% | body weight reduction ([5]; 15 mg per day): about 25% | effect on weights of testis and kidney ([5]; 15 mg per day): ≤ 10% | weight reduction for all of these organs ([5]; 15 mg per day, prostates, coagulating glands, seminal vesicles, preputial glands): ≥ 60% | reversibility of body weight effect ([5]; application stopped, FIG. 38): reversible | organ weights ([5]; male rats, ventral and dorsolateral prostates, coagulating glands, seminal vesicles, preputial glands): without affecting the weight of testis or kidney | tumor size ([6]; FIG. 33, 1 mg/day, two weeks, controls about 450): smaller than 100 mm^3 | tumor size ([6]; FIG. 34, 1400 mm^3 tumor, after 2 weeks of EGCG): about 850 mm^3 | tumor size ([6]; FIG. 34, 1400 mm^3 tumor, after another 2 weeks of EGCG): about 500 mm^3 | tumor size ([6]; FIG. 34, during the 2 week injection): about 100 mm^3 | tumor size ([6]; FIG. 34, within 2 weeks after injection stopped): about 800 mm^3 | tumor size ([6]; FIG. 34, within 3 weeks after injection stopped): over 1200 mm^3 | prostate weight reduction ([7]; castrated + 5α-DHT): no reduction | prostate weight reduction ([7]; castrated + testosterone): about 23% | body weight reduction ([7]; normal and castrated rats with testosterone or 5α-DHT, 7 days): 8±1% | prostate weight reduction ([7]; normal rats): about 30% | pathology examination of organs and blood ([7]; rat, in vivo): did not reveal any abnormal growth or pathogenic effects

CCCCC/C=C\C/C=C\C/C=C\CCCCC(=O)O [γ-Linolenic acid, γ-linolenic acid]
activity at 1 µM (PC-3; 1 μM): 98 ± 6% | activity at 5 µM (PC-3; 5 μM): 50 ± 3% | activity at 20 µM (PC-3; 20 μM): 2 ± 2% | activity at 50 µM (LNCaP): 27% | activity at 100 µM (LNCaP): 9 ± 4% | L/R sebum ratio at end of treatment ([8]; 20 mg twice a day, 6 days): 0.22 | L/R sebum ratio recovered after treatment stopped ([8]; 16 days after stop): 1.20±0.14 | left flank organ area ([9]; after injections, control 12.9±2.2): 9.9±2.4 | right flank organ area ([9]; after injections, control 14.6±1.5): 9.8±2.5 mm^2 | adrenal weight ([9]; control 0.022±0.004 g): 0.021 ± 0.004 g | seminal vesicles and prostate weight ([9]; control 0.156±0.026 g): 0.106 ± 0.022 g | spleen weight ([9]; control 0.157±0.027): 0.1867±0.048 | kidney weight ([9]; control 1.060±0.086 g): 1.121 ± 0.073 g | oxidation products by TLC ([10]; 5 weeks of storage): two additional more polar products | changes of the compound by TLC ([10]; refrigerated for 3 weeks): no detectable changes | inhibition of 5α-DHT-induced growth of pigmented macule (hamster flank organ; 0.2 to 1 mg): no statistically significant inhibition | effective dosage (hamster flank organ; T-stimulated pigmented macule, per flank organ/day): ≥ 0.2 mg | Pigmented Macule, Untreated (L) (hamster flank organ; Table 4, 1 mg fatty acid alone, 18 days): 4.2 ± 0.6 mm^2 | Pigmented Macule, Untreated (L) (hamster flank organ; Table 4, T 0.5 μg + 1 mg fatty acid): 4.1 ± 0.3 mm^2 | change of pigmented macule vs T alone (hamster flank organ; listed as LA): -53% | change of pigmented macule vs T alone (hamster flank organ; listed as γ-LA): 53% | Percent Inhibition (hamster flank organ; Table 5, T 0.5 μg + fatty acid 1 mg, 21 days): 66% | Pigmented macule Right (+T) (hamster flank organ; Table 5, T 0.5 μg + fatty acid 1 mg, 21 days, T alone 49.6 ± 8.3): 17.0 ± 6.4 mm^2 | Pigmented macule Left (hamster flank organ; Table 5, fatty acid 1 mg without T, 21 days): 4.4 ± 1.6 mm^2 | Pigment Macule change (hamster flank organ; Table 6, T + LA 0.2 mg): -31% | Sebaceous Gland change (hamster flank organ; Table 6, T + LA 0.2 mg): -30% | Pigment Macule change (hamster flank organ; Table 6, T + LA 0.4 mg): -24% | Pigment Macule change (hamster flank organ; Table 6, T + LA 0.6 mg): -45% | Sebaceous Gland change (hamster flank organ; Table 6, T + LA 0.6 mg): -51% | Pigment Macule change (hamster flank organ; Table 6, T + LA 0.8 mg): -32% | Sebaceous Gland change (hamster flank organ; Table 6, T + LA 0.8 mg): -25% | Pigment Macule change (hamster flank organ; Table 6, T + LA 1.0 mg): -34% | Sebaceous Gland change (hamster flank organ; Table 6, T + LA 1.0 mg): -55% | maximum inhibition (hamster flank organ; daily dose of 1 to 2 mg γ-LA): 50 to 66% | effect on sebaceous gland growth stimulated by 5α-DHT (hamster flank organ; hamster, in vivo): did not significantly affect | maximal inhibition (hamster flank organ; reached by 1 mg, T-stimulated pigmented macule): 50% | effect on NADH:menadione reductase (NADH:menadione reductase): did not affect | 4-Androstendione formed (% of control) ([11]; 1 μM): 102 ± 6 % of control | 4-Androstendione formed (% of control) ([11]; 5 μM): 110 ± 1 % of control | 4-Androstendione formed (% of control) ([11]; 20 μM): 99 ± 2 % of control | effect on metabolism of testosterone to 4-androstenedione (17β-steroid dehydrogenase) ([11]; words): did not affect
